Values quoted from earlier work in patent US20210228671A1, “EXTRACT OF VEGETATION WATERS FOR USE IN THE TREATMENT AND/OR IN THE PREVENTION OF PROSTATE CANCER” (FATTORIA LA VIALLA DI GIANNI, ANTONIO E BANDINO LO FRANCO - …, priority 2018, published 2021).

Settings: high concentrations, up to 250-500 mg/kg/day

## OCCc1ccc(O)c(O)c1 [hydroxytyrosol]
  toxic effect of in vivo administration: does not exert any toxic effect
